The values that follow come from publication PMC6437697 (Journal of Medicinal Chemistry, 2019).

The structures appear in SMILES notation.

Test in all cases: KINOMEscan
Assay type in all cases: binding
Common to all, as to conditions: read-out: % control activity remaining

The target of one assay is T1, TNK2 (Homo sapiens, UniProt Q07912).
T1 construct: purchased Eurofins DiscoverX KINOMEscan

The next assay deals with T2, MKK7 (Homo sapiens, UniProt O14733).
T2 construct: purchased Eurofins DiscoverX KINOMEscan
T2 sequence (O14733 1-419): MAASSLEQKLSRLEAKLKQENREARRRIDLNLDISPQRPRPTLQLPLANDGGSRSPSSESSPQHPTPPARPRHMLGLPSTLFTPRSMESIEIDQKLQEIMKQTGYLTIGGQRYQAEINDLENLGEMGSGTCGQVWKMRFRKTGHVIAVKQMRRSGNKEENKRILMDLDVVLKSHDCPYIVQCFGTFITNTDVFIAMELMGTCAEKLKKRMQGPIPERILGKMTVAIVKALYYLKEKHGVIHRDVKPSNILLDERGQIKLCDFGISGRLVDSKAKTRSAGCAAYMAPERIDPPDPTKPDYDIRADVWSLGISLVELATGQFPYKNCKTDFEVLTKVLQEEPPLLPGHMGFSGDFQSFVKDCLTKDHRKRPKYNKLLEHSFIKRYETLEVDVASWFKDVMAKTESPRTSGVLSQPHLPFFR

For another assay, the target named is T3, BMX (Homo sapiens, UniProt P51813).
T3 construct: purchased Eurofins DiscoverX KINOMEscan
T3 sequence (P51813 1-675): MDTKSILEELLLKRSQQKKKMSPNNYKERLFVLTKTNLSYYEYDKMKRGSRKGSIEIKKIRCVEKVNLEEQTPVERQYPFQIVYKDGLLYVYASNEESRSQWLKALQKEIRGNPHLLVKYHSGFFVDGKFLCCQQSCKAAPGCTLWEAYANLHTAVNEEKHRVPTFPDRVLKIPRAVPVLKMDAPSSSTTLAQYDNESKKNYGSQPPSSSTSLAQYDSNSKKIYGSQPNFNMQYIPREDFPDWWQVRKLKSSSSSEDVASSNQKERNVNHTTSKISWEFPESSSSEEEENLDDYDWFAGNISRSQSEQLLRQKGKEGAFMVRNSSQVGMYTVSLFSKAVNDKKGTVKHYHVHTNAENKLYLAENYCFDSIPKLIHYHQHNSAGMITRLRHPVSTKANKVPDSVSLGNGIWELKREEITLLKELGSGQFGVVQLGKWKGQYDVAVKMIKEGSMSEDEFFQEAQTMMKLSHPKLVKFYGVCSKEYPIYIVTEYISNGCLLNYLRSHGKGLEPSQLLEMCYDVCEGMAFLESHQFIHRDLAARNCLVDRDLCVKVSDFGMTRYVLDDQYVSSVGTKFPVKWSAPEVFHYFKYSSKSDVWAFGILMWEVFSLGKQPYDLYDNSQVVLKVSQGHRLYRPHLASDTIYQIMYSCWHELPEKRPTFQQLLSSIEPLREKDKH

Assay [1] addresses T4, JAK1(JH2domain-pseudokinase) (Homo sapiens, UniProt P23458).
T4 construct: JAK1(JH2domain-pseudokinase); purchased Eurofins DiscoverX KINOMEscan

In assay [2] the target is T5, TYK2(JH1domain-catalytic) (Homo sapiens, UniProt P29597).
T5 construct: TYK2(JH1domain-catalytic); purchased Eurofins DiscoverX KINOMEscan
T5 sequence (P29597 871-1187 limits assumed): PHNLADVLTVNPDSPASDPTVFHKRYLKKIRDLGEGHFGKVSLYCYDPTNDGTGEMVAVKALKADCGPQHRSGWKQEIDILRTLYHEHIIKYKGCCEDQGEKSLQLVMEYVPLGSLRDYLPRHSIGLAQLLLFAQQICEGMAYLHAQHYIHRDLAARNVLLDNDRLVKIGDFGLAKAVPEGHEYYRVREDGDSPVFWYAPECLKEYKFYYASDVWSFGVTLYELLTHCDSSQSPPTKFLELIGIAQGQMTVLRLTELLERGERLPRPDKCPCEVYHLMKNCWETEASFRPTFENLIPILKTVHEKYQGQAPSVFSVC

The next assay addresses T6, TRKA (Homo sapiens, UniProt P04629).
T6 construct: purchased Eurofins DiscoverX KINOMEscan

A further assay deals with T7, AKT2 (Homo sapiens, UniProt P31751).
T7 construct: purchased Eurofins DiscoverX KINOMEscan
T7 sequence (P31751 whole entry): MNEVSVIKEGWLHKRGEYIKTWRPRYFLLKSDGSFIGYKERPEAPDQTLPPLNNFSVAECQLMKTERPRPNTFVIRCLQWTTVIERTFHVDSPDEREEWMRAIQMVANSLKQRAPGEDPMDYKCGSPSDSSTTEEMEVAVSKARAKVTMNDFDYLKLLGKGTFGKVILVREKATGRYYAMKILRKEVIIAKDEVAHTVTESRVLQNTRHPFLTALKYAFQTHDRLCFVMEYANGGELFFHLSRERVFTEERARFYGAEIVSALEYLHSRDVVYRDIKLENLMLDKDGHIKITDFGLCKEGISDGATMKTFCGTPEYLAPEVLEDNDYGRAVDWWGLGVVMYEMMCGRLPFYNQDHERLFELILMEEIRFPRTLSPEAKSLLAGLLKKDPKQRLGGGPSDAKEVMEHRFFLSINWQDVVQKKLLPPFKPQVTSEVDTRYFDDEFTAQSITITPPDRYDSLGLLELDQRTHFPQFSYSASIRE

Assay [3] addresses T8, EGFR(L747-S752del, P753S) (Homo sapiens, UniProt P00533, DEL747-752/P753S).
T8 construct: purchased Eurofins DiscoverX KINOMEscan

A further assay concerns the target T9, CDK3 (Homo sapiens, UniProt Q00526).
T9 construct: purchased Eurofins DiscoverX KINOMEscan

Another assay addresses T10, PIK3CA (Homo sapiens, UniProt P42336).
T10 construct: purchased Eurofins DiscoverX KINOMEscan

In the next assay the target is T11, PLK1 (Homo sapiens, UniProt P53350).
T11 construct: purchased Eurofins DiscoverX KINOMEscan
T11 sequence (P53350 whole entry): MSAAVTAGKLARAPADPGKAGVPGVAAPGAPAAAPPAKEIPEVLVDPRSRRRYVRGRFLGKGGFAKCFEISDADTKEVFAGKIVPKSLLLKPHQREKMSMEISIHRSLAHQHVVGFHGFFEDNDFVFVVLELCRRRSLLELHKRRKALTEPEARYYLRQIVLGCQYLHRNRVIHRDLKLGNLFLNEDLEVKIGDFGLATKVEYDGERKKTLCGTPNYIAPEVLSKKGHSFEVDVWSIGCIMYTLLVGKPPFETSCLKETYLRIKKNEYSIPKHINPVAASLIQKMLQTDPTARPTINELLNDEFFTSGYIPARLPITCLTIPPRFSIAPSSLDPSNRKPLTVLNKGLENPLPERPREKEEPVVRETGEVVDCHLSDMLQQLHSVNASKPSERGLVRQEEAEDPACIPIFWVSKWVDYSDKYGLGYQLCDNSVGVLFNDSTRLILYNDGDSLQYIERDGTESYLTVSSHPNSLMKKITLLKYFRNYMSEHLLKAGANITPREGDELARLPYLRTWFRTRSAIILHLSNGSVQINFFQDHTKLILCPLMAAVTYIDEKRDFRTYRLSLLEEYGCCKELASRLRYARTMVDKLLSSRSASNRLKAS

Another assay concerns the target T12, CDK7 (Homo sapiens, UniProt P50613).
T12 construct: purchased Eurofins DiscoverX KINOMEscan

The target in the next assay is T13, ZAK (Homo sapiens, UniProt Q9NYL2).
T13 construct: purchased Eurofins DiscoverX KINOMEscan

Assay [4] has as its target T14, ABL1(Q252H)-phosphorylated (Homo sapiens, UniProt P00519, Q252H).
T14 construct: purchased Eurofins DiscoverX KINOMEscan

The target in another assay is T15, PIM2 (Homo sapiens, UniProt Q9P1W9).
T15 construct: purchased Eurofins DiscoverX KINOMEscan

The target in a further assay is T16, SIK2 (Homo sapiens, UniProt Q9H0K1).
T16 construct: purchased Eurofins DiscoverX KINOMEscan
T16 sequence (Q9H0K1 whole entry): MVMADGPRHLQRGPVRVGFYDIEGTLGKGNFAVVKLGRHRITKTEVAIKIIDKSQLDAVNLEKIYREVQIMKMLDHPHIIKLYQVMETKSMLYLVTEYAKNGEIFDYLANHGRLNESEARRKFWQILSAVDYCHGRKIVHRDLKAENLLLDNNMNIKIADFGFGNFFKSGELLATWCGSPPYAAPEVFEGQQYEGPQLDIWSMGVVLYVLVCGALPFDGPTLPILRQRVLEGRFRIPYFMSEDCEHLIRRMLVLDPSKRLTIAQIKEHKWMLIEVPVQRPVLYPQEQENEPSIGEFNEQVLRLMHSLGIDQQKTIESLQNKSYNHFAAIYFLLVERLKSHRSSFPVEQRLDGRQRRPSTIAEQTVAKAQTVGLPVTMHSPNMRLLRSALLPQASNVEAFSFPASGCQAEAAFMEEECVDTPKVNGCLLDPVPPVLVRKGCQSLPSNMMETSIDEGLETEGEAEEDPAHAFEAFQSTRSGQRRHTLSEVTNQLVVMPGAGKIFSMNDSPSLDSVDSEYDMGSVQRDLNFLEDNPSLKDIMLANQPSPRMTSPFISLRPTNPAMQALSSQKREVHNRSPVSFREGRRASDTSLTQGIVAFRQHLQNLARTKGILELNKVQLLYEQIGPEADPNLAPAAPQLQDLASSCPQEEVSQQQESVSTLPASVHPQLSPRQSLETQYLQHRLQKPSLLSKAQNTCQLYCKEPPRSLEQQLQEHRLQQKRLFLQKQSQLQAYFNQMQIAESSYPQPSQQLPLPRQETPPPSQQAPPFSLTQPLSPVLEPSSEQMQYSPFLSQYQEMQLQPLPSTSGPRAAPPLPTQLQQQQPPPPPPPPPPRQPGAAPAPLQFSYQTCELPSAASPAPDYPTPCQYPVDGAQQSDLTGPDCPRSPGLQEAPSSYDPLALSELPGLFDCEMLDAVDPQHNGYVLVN

T4 sequence (P23458 583-855 limits assumed): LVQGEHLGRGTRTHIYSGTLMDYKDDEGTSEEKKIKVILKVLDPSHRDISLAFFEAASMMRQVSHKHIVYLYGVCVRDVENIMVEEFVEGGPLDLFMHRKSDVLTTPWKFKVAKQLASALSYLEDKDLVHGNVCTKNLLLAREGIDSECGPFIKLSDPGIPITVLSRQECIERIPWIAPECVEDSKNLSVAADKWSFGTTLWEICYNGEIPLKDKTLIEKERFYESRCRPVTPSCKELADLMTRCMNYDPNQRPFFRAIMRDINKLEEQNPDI
T8 sequence (P00533 with tags, fused parts or gaps DEL747-752/P753S limits assumed): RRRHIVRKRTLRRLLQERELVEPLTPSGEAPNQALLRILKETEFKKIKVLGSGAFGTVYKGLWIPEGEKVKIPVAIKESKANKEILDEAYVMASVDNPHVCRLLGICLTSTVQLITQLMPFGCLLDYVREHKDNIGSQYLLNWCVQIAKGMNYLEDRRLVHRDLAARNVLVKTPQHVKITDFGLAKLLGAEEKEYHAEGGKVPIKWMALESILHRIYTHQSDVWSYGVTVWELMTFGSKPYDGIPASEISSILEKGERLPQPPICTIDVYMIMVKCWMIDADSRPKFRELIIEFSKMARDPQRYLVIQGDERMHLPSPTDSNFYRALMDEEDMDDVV
T1 sequence (Q07912 whole entry): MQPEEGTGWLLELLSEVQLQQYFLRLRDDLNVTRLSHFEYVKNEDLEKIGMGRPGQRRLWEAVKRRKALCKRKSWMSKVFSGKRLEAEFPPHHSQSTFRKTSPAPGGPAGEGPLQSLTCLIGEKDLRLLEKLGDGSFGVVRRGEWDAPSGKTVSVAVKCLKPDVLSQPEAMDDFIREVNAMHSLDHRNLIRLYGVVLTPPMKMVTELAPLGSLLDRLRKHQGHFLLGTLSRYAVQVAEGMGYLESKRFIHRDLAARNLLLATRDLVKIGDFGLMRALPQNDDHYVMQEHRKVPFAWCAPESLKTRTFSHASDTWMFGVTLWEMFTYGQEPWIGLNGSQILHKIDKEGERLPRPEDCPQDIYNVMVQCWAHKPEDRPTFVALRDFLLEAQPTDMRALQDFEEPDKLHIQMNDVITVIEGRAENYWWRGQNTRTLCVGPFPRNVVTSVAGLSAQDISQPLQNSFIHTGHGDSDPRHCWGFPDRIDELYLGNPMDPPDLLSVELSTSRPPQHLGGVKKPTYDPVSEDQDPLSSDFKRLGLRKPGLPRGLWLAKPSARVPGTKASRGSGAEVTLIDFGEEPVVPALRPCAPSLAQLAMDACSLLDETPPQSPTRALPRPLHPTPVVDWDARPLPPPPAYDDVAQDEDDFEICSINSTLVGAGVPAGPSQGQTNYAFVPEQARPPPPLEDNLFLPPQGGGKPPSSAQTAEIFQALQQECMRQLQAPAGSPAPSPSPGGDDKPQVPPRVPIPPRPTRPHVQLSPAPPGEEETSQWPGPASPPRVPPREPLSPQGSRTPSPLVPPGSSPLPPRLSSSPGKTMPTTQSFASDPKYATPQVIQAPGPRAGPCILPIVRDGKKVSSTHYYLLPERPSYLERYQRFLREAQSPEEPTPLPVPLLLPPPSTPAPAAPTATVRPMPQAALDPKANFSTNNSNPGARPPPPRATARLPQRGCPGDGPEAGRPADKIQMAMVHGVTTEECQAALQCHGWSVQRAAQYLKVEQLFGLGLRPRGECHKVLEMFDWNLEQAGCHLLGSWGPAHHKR
T9 sequence (Q00526 whole entry): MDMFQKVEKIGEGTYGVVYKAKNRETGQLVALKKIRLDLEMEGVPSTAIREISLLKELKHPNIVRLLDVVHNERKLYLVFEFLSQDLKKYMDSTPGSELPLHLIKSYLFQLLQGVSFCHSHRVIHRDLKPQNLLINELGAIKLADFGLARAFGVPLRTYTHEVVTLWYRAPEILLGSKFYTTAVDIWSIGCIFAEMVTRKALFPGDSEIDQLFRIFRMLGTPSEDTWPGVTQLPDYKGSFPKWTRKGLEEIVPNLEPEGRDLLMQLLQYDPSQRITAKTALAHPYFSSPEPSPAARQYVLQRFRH
T10 sequence (P42336 whole entry): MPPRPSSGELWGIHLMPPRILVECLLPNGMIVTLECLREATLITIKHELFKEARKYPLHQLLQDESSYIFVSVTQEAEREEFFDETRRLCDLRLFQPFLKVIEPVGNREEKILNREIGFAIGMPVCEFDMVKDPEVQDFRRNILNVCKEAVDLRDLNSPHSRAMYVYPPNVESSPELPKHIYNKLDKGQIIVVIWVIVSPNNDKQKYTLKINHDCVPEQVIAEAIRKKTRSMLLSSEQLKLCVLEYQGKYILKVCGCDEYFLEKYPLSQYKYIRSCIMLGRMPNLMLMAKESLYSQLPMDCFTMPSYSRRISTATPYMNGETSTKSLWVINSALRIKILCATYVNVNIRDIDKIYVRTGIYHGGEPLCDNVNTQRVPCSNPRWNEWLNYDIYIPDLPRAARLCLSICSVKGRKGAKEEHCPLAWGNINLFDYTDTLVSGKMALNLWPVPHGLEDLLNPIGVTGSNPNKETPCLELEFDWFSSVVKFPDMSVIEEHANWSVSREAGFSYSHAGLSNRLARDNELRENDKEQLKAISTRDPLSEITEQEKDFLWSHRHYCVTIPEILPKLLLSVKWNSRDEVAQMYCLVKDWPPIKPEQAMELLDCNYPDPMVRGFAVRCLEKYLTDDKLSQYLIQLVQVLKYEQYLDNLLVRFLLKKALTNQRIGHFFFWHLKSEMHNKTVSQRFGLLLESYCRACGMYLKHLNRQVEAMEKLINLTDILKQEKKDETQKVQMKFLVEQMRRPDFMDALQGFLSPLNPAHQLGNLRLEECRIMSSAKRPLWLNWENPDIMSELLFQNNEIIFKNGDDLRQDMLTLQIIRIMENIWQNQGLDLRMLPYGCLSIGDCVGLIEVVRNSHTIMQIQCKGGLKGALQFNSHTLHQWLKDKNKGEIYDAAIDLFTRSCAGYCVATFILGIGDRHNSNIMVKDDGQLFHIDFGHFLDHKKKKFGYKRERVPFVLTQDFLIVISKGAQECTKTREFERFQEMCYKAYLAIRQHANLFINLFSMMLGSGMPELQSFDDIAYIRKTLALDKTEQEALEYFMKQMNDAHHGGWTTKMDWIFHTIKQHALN

As to `Clc1cc(NCC2CC2)c2ncc(-c3ccc4[nH]ncc4c3)n2n1` [compound 2, 6-Chloro-N-(cyclopropylmethyl)-3-(1H-indazol-5-yl)imidazo[1,2-b]pyridazin-8-amine], the remaining binding at 1 µM amounted to 86% at TNK2; 92% on MKK7; 96% on BMX; 93% in [1]; 87% in assay [2]; 89% at TRKA. Besides, the remaining binding at 1 µM was 99% at AKT2; 89% in assay [3]; 95% on CDK3; 72% at PIK3CA; 97% at PLK1; 68% at CDK7. For the same molecule, the remaining binding at 1 µM came out at 86% at ZAK, 78% in assay [4], 100% at PIM2 and 73% at SIK2.

`O=C(CN1CCOCC1)N[C@H]1CC[C@H](Nc2cc(Cl)nn3c(-c4ccc5[nH]ncc5c4)cnc23)CC1` [compound 26]: the remaining binding at 1 µM at TNK2 was found to be 93%; at MKK7, 100%; at BMX it was 92%; in assay [1], 100%; in assay [2] it was 100%; at TRKA, 19%. Also, the remaining binding at 1 µM was 99% on AKT2; 81% in [3]; 90% on CDK3; 97% at PIK3CA; 90% on PLK1; 16% at CDK7. In addition, the remaining binding at 1 µM on ZAK turned out to be 87%; in [4], 46%; on PIM2, 100%; at SIK2, 97%.

Turning to `CN1CCC(CNc2cc(Cl)nn3c(-c4cc5nc(Nc6ccccc6)[nH]c5cc4F)cnc23)CC1` [compound 31, 6-Chloro-3-(6-fluoro-2-(phenylamino)-1H-benzo[d]imidazol-5-yl)-N-((1-methylpiperidin-4-yl)methyl)imidazo[1,2-b]pyridazin-8-amine], the remaining binding at 1 µM worked out at 100% on TNK2; 93% on MKK7; 100% at BMX; 82% in [1]; 74% in assay [2]; 96% on TRKA. Also, the remaining binding at 1 µM stood at 80% on AKT2; 100% in assay [3]; 97% on CDK3; 90% on PIK3CA; 96% at PLK1; 61% on CDK7. For the same molecule, the remaining binding at 1 µM on ZAK was found to be 93%; in assay [4], 79%; at PIM2, 100%; at SIK2, 100%.
